Data as given in patent publication US10597696B2, “Detection of Niemann-Pick disease comprising detection of lysozyme and cathepsins” (UNIVERSITY OF NOTRE DAME DU LAC, priority 2013, dated 2020).
Entries after “also recorded” stand apart in the source; their conditions may differ.

Assays:
Npc1^nih Npc1^−/− mice = test: Plasma 24(S)-hydroxy cholesterol ELISA after HPβCD; format: in vivo, mouse
Procedure: Plasma 24-HC concentration was determined using ELISA kit from Enzo Life Sciences (Farmingdale, N.Y., USA) according to the manufacturer's instructions. Plasma was diluted to 1:1000 in supplied buffer and measurements were done in triplicate wells. Pure 24-HC (supplied with kit) was used to prepare the standard curve. 24-HC concentration was normalized to plasma protein content. Starting at P21 and once a week thereafter, Npc1^nih and Npc1^nmf164 mice were injected i.p with 20% 2-hydroxypropyl-beta-cyclodextrin (HPβCD, 4000 mg/Kg) prepared in 0.2% DMSO and 0.9% saline. Control mice received 0.2% DMSO in 0.9% saline. Blood was collected either via cheek bleed or terminal heart bleed from mice in EDTA tubes (BD Biosciences, San Jose, Calif., USA). Plasma was separated by centrifugation at 2500 rpm for 15 min and stored at −70° C. until used.

[1] = system: Npc1^nmf164 homozygous mutant mice; test: Plasma lysozyme activity in HPβCD-treated Npc1^nmf164 mice; format: in vivo, mouse; conditions: once a week i.p. from age 21-27 days, plasma at 50-55 days, vs vehicle/untreated
[2] = system: Npc1^nih Npc1^−/− mouse brain; test: Immunohistochemistry of brain sections after HPβCD; format: in vivo; conditions: immunofluorescence
Procedure: Mice were sacrificed by asphyxiation using CO2. The circulatory bed was washed with PBS (pH 7.4), and subsequently perfused with 10% neutral buffered formalin (˜4% formaldehyde). The organs (brain and liver) were surgically harvested and stored in 4% formaldehyde at room temperature (RT) until transfer to paraffin. Paraffin-embedded tissue sections (3-4 μm) were dewaxed in xylene and alcohol. For Ly-6G and calbindin staining, antigen retrieval was done by pre-incubating deparaffinized samples with 0.05% proteinase K (Dako, Germany) in 50 mM Tris-HCl (pH 7.5) for 8 min at RT. CTSS and lysozyme were retrieved by boiling the sections in acidic condition for 30 min. Sections were incubated with anti-Ly-6G (20 μg/ml), anti-calbindin (1:1000), anti-CTSS (20 μg/ml) or anti-lysozyme (1:20) overnight at 4° C. Reagents were prepared according to the manufacturer's instructions (Vector laboratories). The staining protocol was followed as described previously (19). The secondary antibody for neutrophil staining was biotinylated rabbit anti-rat IgG (mouse absorbed, Vector Laboratories) and for Purkinje neurons was biotinylated horse anti-mouse IgG (Vector Laboratories).
For fluorescence microscopy, FITC-conjugated IgG (MP Biomedicals, Solon, Ohio, USA) was the secondary antibody. Sections stained only with secondary antibodies served as controls. Brightfield images were acquired on a Nikon Olympus microscope, using a Nikon digital DS-Fi1-U2 camera controlled by NIS-Elements F3.0 Nikon software (all from Nikon Instruments INC, Tokyo, Japan). Images were visualized with A10 PL 10×/0.25, or a DPIan Apo 40×/1.00 oil-immersion or a DPIan Apo 100×/1.30 oil-immersion objective lens (Nikon). Fluorescence microscopy and digital image collection were performed using an Olympus IX inverted fluorescence microscope and a Photometrix cooled CCD camera (CH350/LCCD) driven by DeltaVision software from Applied Precision (Seattle, Wash., USA). […] ImageJ (National Institute of Health, Bethesda, Md., USA) software was used to process and quantify the fluorescence intensity of CTSS and lysozyme. […]

[3] = system: Npc1^nih Npc1^−/− mouse liver; test: qPCR of cathepsins, inflammation and fibrosis markers in liver after HPβCD; format: in vivo
Text: In mice, formalin fixed paraffin embedded tissue was sectioned (4-5 μm) and total RNA was isolated using RNeasy FFPE kit (Qiagen, Germantown, Md., USA) which included treatment with DNAse. Frozen human liver and cerebellum from 4 NPC patients and 4 age-, gender- and ethnicity-matched controls were obtained from the NICHD Brain and Tissue Bank for Developmental Disorders (University of Maryland, Baltimore, Md., USA), as approved by the Institutional Review Board (IRB), of the University of Notre Dame, Ind., USA (FWA 00002462). Total RNA was isolated using RNeasy kit (Qiagen, Germantown, Md., USA). Eluted RNA was further digested with RNase free DNaseI and re-purified using RNeasy column. The quality of RNA was checked using Bioanalyzer chip (Agilent Technologies, Santa Clara, Calif., USA) and quantity was determined using Nanodrop 2000 (Thermo Fisher Scientific, Waltham, Mass., USA). Quantitative PCR (qPCR) was performed using Power SYBR Green RNA-to-CT 1-Step Kit and an ABI Prism 7500 Fast real-time PCR system (Applied Biosystems, Grand Island, USA). Reaction was set in 20 μl using 100 nM primers and 5-100 ng total RNA as template. The thermal cycling parameters were as follows: step 1, 48° C. for 30 min; step 2, 95° C. for 10 min; step 3, 95° C. for 15 sec ° C.; step 4, 60° C. for 15 sec. Step 3-4 was repeated for 40 cycles followed by melt curve analysis. Specific amplification was validated by analysis of template titration, melt curves and agarose gel electrophoresis. In both mouse and human tissues, the mRNA levels were normalized to the housekeeping gene, Gapdh (Glyceraldehyde 3-phosphate dehydrogenase). Fold change was calculated by relative standard curve method after correcting PCR efficiency. In mice, the fold change in expression levels of different genes in Npc1^−/− was calculated relative to average levels of expression in Npc1^+/− mice. In human tissues, fold change in transcript expression in NPC liver and cerebellum was expressed relative to average expression in age-matched controls. Starting at P21 and once a week thereafter, Npc1^nih and Npc1^nmf164 mice were injected i.p with 20% 2-hydroxypropyl-beta-cyclodextrin (HPβCD, 4000 mg/Kg) prepared in 0.2% DMSO and 0.9% saline. Control mice received 0.2% DMSO in 0.9% saline. Blood was collected either via cheek bleed or terminal heart bleed from mice in EDTA tubes (BD Biosciences, San Jose, Calif., USA). Plasma was separated by centrifugation at 2500 rpm for 15 min and stored at −70° C. until used.

CC(O)COC[C@H]1O[C@@H]2O[C@H]3[C@H](O)[C@@H](O)[C@@H](O[C@H]4[C@H](O)[C@@H](O)[C@@H](O[C@H]5[C@H](O)[C@@H](O)[C@@H](O[C@H]6[C@H](O)[C@@H](O)[C@@H](O[C@H]7[C@H](O)[C@@H](O)[C@@H](O[C@H]8[C@H](O)[C@@H](O)[C@@H](O[C@H]1[C@H](O)[C@H]2O)O[C@@H]8COCC(C)O)O[C@@H]7COCC(C)O)O[C@@H]6COCC(C)O)O[C@@H]5COCC(C)O)O[C@@H]4COCC(C)O)O[C@@H]3COCC(C)O (stereo partly drawn) [HPβCD, 2-hydroxypropyl-beta-cyclodextrin]
24(S)-HC level in plasma (Npc1^nih Npc1^−/− mice): largely unaffected
plasma lysozyme activity [1]: significantly reduced; also recorded: rendered comparable to untreated wild type animals
plasma lysozyme activity ([1]; listed as H∪CD): decrease
lysozyme levels in the cerebellum (white mater region) ([2]; FIG. 19E-F): no significant effect
reduction of lysozyme in molecular layer of the cerebellum ([2]; FIG. 19I-K): ~25%
reduction of CTSS levels in hippocampal neurons ([2]; ImageJ quantification): ~20%
expression of Cd68 in liver ([3]; Npc1^−/− mice): reduced to normal levels
expression of Col1a in liver ([3]; Npc1^−/− mice): anomalous reduction
expression of Itgax in liver ([3]; Npc1^−/− mice): reduced to normal levels
Lyz1 expression in liver ([3]; Npc1^−/− mice, late stages): abrogated Lyz1 over expression; also recorded: restored lysozyme transcript and protein to normal levels
expression of Ctss in liver ([3]; late stage Npc1^−/− mice): markedly reduced and equivalent to control mice
